From ChEMBL document CHEMBL6074690, “Development and Characterization of a High-Affinity Selective Galectin-3 Mouse Tool Compound in Mouse Models of Cancer” (J Med Chem, 2024)

Experiments:
[1] = Apparent permeability across apical to basal side in human Caco-2 cells at 10 uM incubated for 90 mins by LC-MS/MS analysis; type: ADME, cell-based
[2] = Intrinsic clearance in mouse hepatocytes measured per million cells at 2 uM incubated for 15 to 120 mins by LC-MS/MS analysis; type: ADME, cell-based, Hepatocyte; conditions: time 15-120 min, read-out: CLH
[3] = Intrinsic clearance in human hepatocytes measured per million cells at 2 uM incubated for 15 to 120 mins by LC-MS/MS analysis; type: ADME, cell-based, Hepatocyte; conditions: time 15-120 min, read-out: CLH
[4] = Lipophilicity, log D of compound in potassium phosphate buffer/octanol at pH 7.4 by shake flask method; type: physicochemical
[5] = Apparent permeability across basal to apical side in human Caco-2 cells at 10 uM incubated for 90 mins by LC-MS/MS analysis; type: ADME, cell-based
[6] = Unbound drug level in C57BL/6 mouse at 30 mg/kg, po measured for 12 hrs; type: ADME, organism-based; conditions: in vivo

Row | Papp A→B at […], 10 µM [1] [nm/s] | hepatocyte CLint at 2 µM [2] [µL/min/1e6 cells] | hepatocyte CLint at 2 µM [3] [µL/min/1e6 cells] | logD [4] | Papp B→A at […], 10 µM [5] [nm/s] | Drug uptake(free) [6] | Structure (SMILES)
1 | […] | […] | 0.15 | […] | […] | – | OC[C@H]1O[C@@H](Sc2cncc(Br)c2)[C@H](O)[C@@H](n2cc(-c3cc(F)c(F)c(F)c3)nn2)[C@H]1O
2 | […] | 0.8 | 0.7 | 4.6 | […] | – | OC[C@H]1O[C@@H](Sc2ccc(Cl)c(Cl)c2)[C@H](O)[C@@H](n2cc(-c3cc(F)c(F)c(F)c3)nn2)[C@H]1O
3 | – | 0.6 | – | > 4 | 170 | Active | OC[C@H]1O[C@@H](Sc2cncc(Br)c2)[C@H](O)[C@@H](n2cc(-c3cc(F)c(Cl)c(F)c3)nn2)[C@H]1O
